In PMC11558128 (Advanced Science, 2024):
Positions of bridges follow the written chain, without caps; N, C: chain ends. Residues, ends and D or L forms follow the SMILES beside them.

How the values were obtained:
[1] = biological target: T1, rKv4.2 E283K (Rattus norvegicus, UniProt Q63881, E283K); assay: cell-based; conditions: mean ± SEM
T1 construct: expressed in transfected cells; host or cells: HEK293T
T1 sequence (Q63881 1-630 E283K): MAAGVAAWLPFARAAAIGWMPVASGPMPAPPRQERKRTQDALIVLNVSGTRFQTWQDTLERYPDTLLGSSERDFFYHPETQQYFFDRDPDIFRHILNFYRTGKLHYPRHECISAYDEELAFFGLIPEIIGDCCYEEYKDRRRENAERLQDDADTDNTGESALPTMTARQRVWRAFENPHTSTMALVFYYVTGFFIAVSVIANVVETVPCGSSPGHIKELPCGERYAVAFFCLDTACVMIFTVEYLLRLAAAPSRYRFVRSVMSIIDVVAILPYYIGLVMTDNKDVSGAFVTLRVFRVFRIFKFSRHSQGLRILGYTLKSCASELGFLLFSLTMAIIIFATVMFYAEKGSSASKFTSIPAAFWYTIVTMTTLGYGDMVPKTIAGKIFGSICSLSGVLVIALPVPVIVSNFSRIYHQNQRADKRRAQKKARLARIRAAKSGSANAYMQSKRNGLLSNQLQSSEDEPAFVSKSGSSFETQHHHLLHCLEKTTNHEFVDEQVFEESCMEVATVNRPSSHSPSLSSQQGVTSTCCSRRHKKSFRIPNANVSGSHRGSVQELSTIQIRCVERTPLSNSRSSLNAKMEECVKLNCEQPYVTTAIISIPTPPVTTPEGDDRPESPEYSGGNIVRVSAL

[2] = tested on: other Kv channels (hKv1.1-1.5, rKv2.1, hKv3.1-3.4, mKv4.1, hKv7.2 and hERG); conditions: n = 3-4; for effect on the current traces of other Kv channels: 1 µM toxin
[3] = tested on: ICR mice; assay: Surface electrocardiogram (ECG) recording in ICR mice; format: in vivo, mouse
Description: Surface Electrocardiographic (ECG) Recording: ICR mice (weight 18–20 g, 6–8 weeks, both sex) were lightly anesthetized with 3% halothane for Surface electrocardiograms (ECG), which were recorded by placing dry electrodes carefully wrapped around each of the mouse's four limbs. The data of physiological effects of intravenous administration of 0.3 mg kg^−1 mGpTx1 (4 males and 4 females) or 2 mg kg^−1 mGpTx1‐SA (3 males and 2 females) for 5 min were collected by PowerLab 2/28 and LabChart 8 (AD Instruments, Bella Vista, Australia) and analyzed standard ECG parameters by along with its accompanying ECG analysis plug‐in. For each mouse, the data of 8 cardiac cycles before and after administration were averaged for analysis.

[4] = tested on: ICR mice; assay: Rotarod test; format: in vivo, mouse; conditions: 2 mg kg-1 i.p.; vs saline; n = 5-6, p > 0.9999
Description: In Vivo Safety Evaluation: Rotarod Test: ICR mice (weight 18–20 g, 6–8 weeks, both sex) were trained on a rotarod at a constant speed of 20 rpm for 8 min per day. […] On the 5th day, the remaining mice were randomly divided into two groups: Saline (3 males and 2 females) and 2 mg kg^−1 mGpTx1‐SA (3 males and 3 females). All groups were administered intraperitoneally and allowed 20 minutes for the drug to take effect before behavioral tests were conducted. The total motor time of the animals during 300 s was recorded for analysis.

[5] = tested on: ICR mice; assay: Forced swimming test; format: in vivo, mouse; conditions: 2 mg kg-1 i.p.; vs saline; n = 5, p = 0.8413
Description: Forced Swimming Test: ICR mice (weight 18–20 g, 6–8 weeks, both sex) were subjected to forced swimming training for 8 min per day over a span of 4 days. […] On the 5th day, the remaining mice were randomly assigned to one of two groups: Saline (3 males and 2 females) and the 2 mg kg^−1 mGpTx1‐SA (3 males and 2 females). All groups received intraperitoneal administration and were allowed 20 min for the drug to take effect before behavioral tests commenced. Swimming time was recorded for a duration of 4 min within a 6‐minute timeframe following drug administration.

[6] = tested on: ICR mice; assay: Small intestinal propulsion test; format: in vivo, mouse; conditions: 2 mg kg-1 i.p.; vs saline; n = 4, p = 0.3429
Description: Small Intestinal Propulsion Test: ICR mice (weight 18–20 g, 6–8 weeks, both sex) were subjected to a 24‐hour fasting period to ensure gastrointestinal emptying. Subsequently, the mice were randomly assigned to one of two groups: Saline (2 males and 2 females) and 2 mg kg^−1 mGpTx1‐SA (2 males and 2 females). All groups received intraperitoneal administration of their respective substances and were allowed 20 minutes for the drugs to take effect. Following drug administration, each mouse received a pre‐prepared nutritive semi‐solid paste (10 g of sodium carboxymethylcellulose, 16 g of milk powder, 8 g of sucrose, 8 g of starch, and 5 g of activated charcoal, stirred well in 250 mL of ddH2O) via gavage (0.5 mL per 20 g). After 20 min, the mice were euthanized, and their small intestines were carefully removed. The distance from the pylorus to the ileum was measured along the full length of the small intestine. Additionally, the distance from the pylorus to the front of the black semi‐solid paste was measured. Small intestinal propulsion rate (%) = length of carbon paste propulsion (cm) × 100% / total length of small intestine (cm).

[7] = tested on: acutely isolated rat cardiomyocytes; conditions: 5 µM; for effect on action potential duration (APD): n = 5-6
[8] = tested on: native Kv channels of rat primary cardiomyocytes; conditions: 5 µM; n = 5
[9] = tested on: native Nav channels of rat primary cardiomyocytes; conditions: 5 µM; n = 5

## CC[C@H](C)[C@H](NC(=O)[C@H](CCC(=O)O)NC(=O)[C@H](Cc1ccc(O)cc1)NC(=O)[C@H](CCCCN)NC(=O)[C@@H]1CSSC[C@@H]2NC(=O)[C@H](CCC(N)=O)NC(=O)[C@H](CC(=O)O)NC(=O)[C@H](CC(N)=O)NC(=O)[C@H](CO)NC(=O)[C@@H]3CCCN3C(=O)[C@H](CC(N)=O)NC(=O)[C@@H]3CSSC[C@H](NC(=O)[C@H](C(C)C)NC(=O)[C@H](CC(C)C)NC(=O)[C@H](CC(N)=O)NC(=O)[C@H](CO)NC(=O)[C@H](CO)NC(=O)[C@H](CCCCN)NC(=O)[C@H](CSSC[C@H](NC(=O)[C@@H](N)CCC(=O)O)C(=O)N[C@@H](CC(C)C)C(=O)NCC(=O)N[C@@H](Cc4ccccc4)C(=O)NCC(=O)N[C@@H](CCCCN)C(=O)NCC(=O)N3)NC2=O)C(=O)N[C@@H](CO)C(=O)N[C@@H](CCCNC(=N)N)C(=O)N[C@@H](CCCCN)C(=O)N[C@@H](Cc2c[nH]cn2)C(=O)N[C@@H](CCCNC(=N)N)C(=O)N[C@@H](Cc2c[nH]c3ccccc23)C(=O)N1)C(N)=O [HNTX-IV]
[1]
  IC50: 5630 ± 1280 nM

## CC(C)C[C@@H]1NC(=O)[C@H](Cc2c[nH]c3ccccc23)NC(=O)[C@H](Cc2ccc(O)cc2)NC(=O)[C@H](CCCNC(=N)N)NC(=O)[C@@H](NC(=O)[C@@H](N)CCC(=O)O)CSSC[C@@H]2NC(=O)[C@@H]3CSSC[C@@H](C(=O)N[C@H](C(=O)N[C@@H](Cc4c[nH]c5ccccc45)C(=O)N[C@@H](CC(=O)O)C(=O)N[C@@H](Cc4c[nH]c5ccccc45)C(=O)N[C@H](C(=O)N[C@@H](Cc4ccccc4)C(N)=O)[C@@H](C)O)C(C)C)NC(=O)[C@H](Cc4c[nH]c5ccccc45)NC(=O)CNC(=O)[C@H](Cc4c[nH]cn4)NC(=O)[C@H](CCCCN)NC(=O)[C@@H]4CCCN4C(=O)[C@H](CO)NC(=O)[C@H](CSSC[C@H](NC(=O)[C@H]([C@@H](C)O)NC(=O)CNC1=O)C(=O)N[C@@H](CO)C(=O)N[C@@H](CCCCN)C(=O)N[C@@H]([C@@H](C)O)C(=O)NCC(=O)N[C@@H](CC(=O)O)C(=O)N3)NC(=O)[C@H](CO)NC(=O)[C@H](CC(C)C)NC(=O)[C@H](Cc1c[nH]cn1)NC(=O)[C@H](CO)NC2=O [HNTX-VIIa] (H-ECRYWLGTCSKTGDCCSHLSCSPKHGWCVWDWTF-NH2; disulfide 2-16, 9-21, 15-28)
[1]
  IC50: 62 ± 13 nM
[2]
  effect on the current traces of other Kv channels: no obvious or only minimal effect

## CC[C@H](C)[C@@H]1NC(=O)[C@@H]2CSSC[C@@H]3NC(=O)[C@H](C(C)C)NC(=O)[C@H](CC(C)C)NC(=O)[C@H](CC(N)=O)NC(=O)[C@@H]4CCCN4C(=O)[C@H](CCCNC(=N)N)NC(=O)[C@H](CSSC[C@H](NC(=O)[C@@H](N)CC(=O)O)C(=O)N[C@@H](CC(C)C)C(=O)NCC(=O)N[C@@H](C)C(=O)N[C@@H](Cc4ccccc4)C(=O)N[C@@H](CCCNC(=N)N)C(=O)N[C@@H](CCCCN)C(=O)N2)NC(=O)[C@H](CSSC[C@@H](C(=O)N[C@@H](CCCCN)C(=O)N[C@@H](Cc2ccc(O)cc2)C(=O)N[C@H](C(=O)N[C@@H](Cc2ccccc2)C(N)=O)C(C)C)NC(=O)[C@H](Cc2c[nH]c4ccccc24)NC(=O)[C@H](CCCNC(=N)N)NC(=O)[C@H](Cc2c[nH]cn2)NC(=O)[C@H](C)NC(=O)[C@H](CO)NC(=O)[C@H](CO)NC3=O)NC(=O)[C@H](CCCCN)NC(=O)[C@H](CC(=O)O)NC(=O)[C@H](CC(N)=O)NC(=O)[C@H](CC(=O)O)NC(=O)[C@@H]2CCCN2C1=O [mGpTx1-SA] (H-DCLGAFRKCIPDNDKCCRPNLVCSSAHRWCKYVF-NH2; disulfide 2-17, 9-23, 16-30)
[3]; 2 mg kg-1, tail vein, control 0.13 ± 0.01 s, n = 5, p = 0.3229
  RR interval: 0.13 ± 0.01 s
[3]; 2 mg kg-1, tail vein, control 478.2 ± 24.3, n = 5, p = 0.8856
  heart rate: 475.3 ± 24.7
[3]; 2 mg kg-1, tail vein, n = 5
  effect on the ECGs: no effect
[4]
  balance time of mice on the rotarod test: did not affect
[5]
  time spent on swimming: did not affect
[6]
  small intestinal propulsion: no effect
[2]; 10 µM
  inhibition on other Kv channel subtypes: low inhibition
[7]
  effect on AP amplitude: no significant changes
  effect on resting membrane potential (RMP): no significant changes
  effect on action potential duration (APD): no effect
[8]
  inhibition of Kv currents in the primary cardiomyocytes: did not inhibit
[9]
  inhibition of Nav currents in the primary cardiomyocytes: did not inhibit

## CC[C@H](C)[C@@H]1NC(=O)[C@@H]2CSSC[C@@H]3NC(=O)[C@H](C(C)C)NC(=O)[C@H](CC(C)C)NC(=O)[C@H](CC(N)=O)NC(=O)[C@@H]4CCCN4C(=O)[C@H](CCCNC(=N)N)NC(=O)[C@H](CSSC[C@H](NC(=O)[C@@H](N)CC(=O)O)C(=O)N[C@@H](CC(C)C)C(=O)NCC(=O)N[C@@H](C)C(=O)N[C@@H](Cc4ccccc4)C(=O)N[C@@H](CCCNC(=N)N)C(=O)N[C@@H](CCCCN)C(=O)N2)NC(=O)[C@H](CSSC[C@@H](C(=O)N[C@@H](CCCCN)C(=O)N[C@@H](Cc2ccc(O)cc2)C(=O)N[C@H](C(=O)N[C@@H](Cc2ccccc2)C(N)=O)C(C)C)NC(=O)[C@H](Cc2c[nH]c4ccccc24)NC(=O)[C@H](CCCNC(=N)N)NC(=O)[C@H](Cc2cnc[nH]2)NC(=O)[C@H](CC(C)C)NC(=O)[C@H](CCCNC(=N)N)NC(=O)[C@H](CO)NC3=O)NC(=O)[C@H](CCCCN)NC(=O)[C@H](CC(=O)O)NC(=O)[C@H](CC(N)=O)NC(=O)[C@H](CC(=O)O)NC(=O)[C@@H]2CCCN2C1=O [mGpTx1] (H-DCLGAFRKCIPDNDKCCRPNLVCSRLHRWCKYVF-NH2; disulfide 2-17, 9-23, 16-30)
[1]
  IC50: 646 ± 135 nM
[3]; 0.3 mg kg-1, tail vein, control 0.07 ± 0.01 s, n = 8, p < 0.001
  QTc interval: 0.12 ± 0.01 s
[3]; 0.3 mg kg-1, tail vein, control 0.12 ± 0.01 s, n = 8, p = 0.0088
  RR interval: 0.14 ± 0.01 s
[3]; 0.3 mg kg-1, tail vein, control 0.20 ± 0.03 mV, n = 8, p = 0.0138
  T-wave amplitude: 0.09 ± 0.02 mV
[3]; 0.3 mg kg-1, tail vein, control 508.4 ± 24.5, n = 8, p = 0.0045
  heart rate: 451.6 ± 27.1
[3]; 0.3 mg kg-1, tail vein, n = 8
  effect on the ECGs: notably altered the shape of the ECGs
[2]
  effect on the current traces of other Kv channels: no obvious or only minimal effect
[7]
  effect on AP amplitude: no significant changes
  effect on resting membrane potential (RMP): no significant changes
  effect on action potential duration (APD): significantly prolonged
[7]; before treatment 51.7 ± 14.6 ms, n = 5, p = 0.0289
  APD at 90% repolarization (APD 90): 137.1 ± 36.3 ms
